Laboratory results reported in patent US20150031128A1, “CULTURE MEDIUM FOR EUKARYOTIC CELLS” (Friesland Brands B.V., priority 2012, published 2015).
Peptide text beside a SMILES is read from it.

What was measured:
[1] = system: IgG expressing CHO cell line (CHO-2: ATCC CRL 11397, producing IgG4); assay: Specific IgG production of IgG expressing CHO cells in supplemented chemically defined medium (sandwich ELISA / AUC); format: cell-based, Chinese hamster; settings: ratio of cumulative IgG production (mg/ml) and AUC at day 11
Description: (§1) The cell culture assay was carried out in commercially available IS CHO-CD medium (Irvine Scientific, Cat. No. 91119). To this media, L-Glutamine (2 mM), pluronic acid, hypoxanthine (100 μM) and thymidine (15 μM) were added. Penicillin and streptomycin were added to prevent any bacterial growth during the growth assay. The media was supplemented with sodium-L-lactate, methyl-L-3-phenyl lactate, mucic acid, D-chiro-inositol, ferulic acid, syringic acid, adenine (A2786) and trigonelline, all purchased from Sigma Aldrich, Germany, in varying concentrations (see Table 2). The supplemented medium was mixed with a vortex mixture, filtered using a 0.22 μm filter and subsequently used in a growth assay.
(§2) An IgG expressing CHO cell line was used (CHO-2: ATCC CRL 11397, producing IgG4). The cell lines were grown in the adherent conditions for a few passages and once confluent, they were transferred to animal-free conditions in the supplemented media described in Example 2.
(§3) To measure growth and production curves, Chinese hamster ovary (CHO) cells were grown in suspension culture in baffled flasks. 20×10^6 cells were transferred in 25 ml media to the baffled flasks. Chemically defined media with and without added cell culture medium components were tested. No fresh media was added during the growth assay. Cells were counted using the CEDEX HiRes cell counter (Innovatis, Germany). The cell counts were used to calculate the area under the growth curve and represented as dimensionless area under curve (AUC) values as described in detail in Ling, C. X, Huang, J. and Zhang, H. (2003), International joint conferences on artificial intelligence, pp. 329-341. The supernatant samples were taken every alternate days for the IgG production measurements. IgG production was measured using sandwich ELISA method. The specific IgG production was calculated by taking the ratio of cumulative IgG production (in mg/ml) and AUC measured at day 11 of the growth assay. The cells were visually inspected using a phase contrast microscope (Zeiss Axiovert 25, 400× magnification). […] Only single cells were observed and no aggregation of cells was seen. The cell shape was also positively affected. […] This was in contrast with the observation that a lot of cell aggregates were present in CHO cell cultures grown in chemically defined medium without cell culture medium components.
(§4) Table 2A and 2B. Specific IgG production and cell growth of CHO cells in chemically defined cell culture medium (see Example 5 for details) with added cell culture medium components of the invention in varying concentrations. Production and growth data in chemically defined cell culture medium without added alpha-hydroxy acid derivatives, as well as in chemically defined cell culture medium supplemented with soy protein hydrolysate (0.4% w/v) and with fetal calf serum (Gibco-Invitrogen; 5% v/v) are provided for comparison.

[2] = system: IgG expressing CHO cell line (CHO-2: ATCC CRL 11397, producing IgG4); assay: Cell growth (area under growth curve) of CHO cells in supplemented chemically defined medium; format: cell-based, Chinese hamster; settings: dimensionless AUC
Description: as §1, §2, §3, §4

[3] = system: antibody production in cell culture; assay: Correlation (linear regression, SLOPE) of antibody production with relative concentration of components in plant protein hydrolysates; format: cell-based; settings: linear regression over plant protein hydrolysates; higher positive slope = higher importance
Description: Commercial plant protein hydrolysates like SE50MAF-UF, WGE80M-UF, CNE80M-UF, PCE80B obtained from FrieslandCampina Domo, USA were analysed by Liquid chromatography/Mass Spectrometry (LC/MS, LC/MS2) using a Waters Acquity UPLC and a Thermo-Finnigan LTQ mass spectrometer, which consists of an electrospray ionization (ESI) source and linear ion-trap (LIT) mass analyzer. The sample extract was split into two aliquots, dried, then reconstituted in acidic or basic LC-compatible solvents. One aliquot was analyzed using acidic positive ion optimized conditions and the other using basic negative ion optimized conditions in two independent injections using separate dedicated columns. […] Using the SLOPE function of Microsoft Excel 2003, the correlation between antibody production and relative concentration of the components was calculated, the results of which are presented in Table 1 below. The higher the positive slope, the higher the importance of a biochemical component in the cell culture. p-values, also calculated using MS Excel's correlation regression function, represent the significance of the values, with the lower the p-value (all between 0 and 1), the more significant the measured value.

[4] = component added at 1 × 10^−1 % w/v
[5] = component added at 1 × 10^−2 % w/v
[6] = component added at 1 × 10^−3 % w/v

COc1cc(C(=O)O)cc(OC)c1O [Syringic Acid, 4-hydroxy-3,5-dimethoxybenzoic acid]
Specific IgG production after 11 days [1, 4]: 96.8 | Specific IgG production after 11 days [1, 5]: 93.2 | Specific IgG production after 11 days [1, 6]: 77.3 | Cell growth (area under curve) after 14 days [2, 4]: 60.0 | Cell growth (area under curve) after 14 days [2, 5]: 58.8 | Cell growth (area under curve) after 14 days [2, 6]: 53.4

Nc1ncnc2nc[nH]c12 [adenine]
Specific IgG production after 11 days [1, 5]: 100.8 | Specific IgG production after 11 days [1, 6]: 82.4

O=C(O)CC[C@@H]1NC(=O)CNC1=O [cyclo(Gly-Glu)]
SLOPE (correlation of antibody production and relative concentration of cell culture medium component) [3]: 1584.22

C[n+]1cccc(C(=O)[O-])c1 [trigonelline, 1-methylpyridinium-3-carboxylate]
Specific IgG production after 11 days [1, 4]: 83.65 | Specific IgG production after 11 days [1, 5]: 75.68

C[C@H](O)C(=O)[O-].[Na+] [Sodium-L-lactate, sodium-L-lactate]
Specific IgG production after 11 days [1, 4]: 93.77 | Cell growth (area under curve) after 14 days [2, 4]: 61.83

OC1C(O)C(O)C(O)C(O)C1O [D-Chiro-inositol, D-chiro-inositol]
Specific IgG production after 11 days [1, 4]: 60.22 | Specific IgG production after 11 days [1, 5]: 93.05 | Specific IgG production after 11 days [1, 6]: 102.40 | Cell growth (area under curve) after 14 days [2, 4]: 64.24 | Cell growth (area under curve) after 14 days [2, 5]: 51.22 | Cell growth (area under curve) after 14 days [2, 6]: 50.18

COc1cc(/C=C/C(=O)O)ccc1O [ferulic acid, (E)-3-(4-hydroxy-3-methoxy-phenyl)prop-2-enoic acid]
Specific IgG production after 11 days [1, 4]: 60.5 | Specific IgG production after 11 days [1, 5]: 86.3 | Specific IgG production after 11 days [1, 6]: 124.2 | Cell growth (area under curve) after 14 days [2, 4]: 66.3 | Cell growth (area under curve) after 14 days [2, 5]: 51.3 | Cell growth (area under curve) after 14 days [2, 6]: 49.7

CC(C)[C@H](N)C(=O)N[C@@H](CCC(=O)O)C(=O)O [valinylglutamate] (H-Val-Glu-OH)
SLOPE (correlation of antibody production and relative concentration of cell culture medium component) [3]: 2064.16
